Laboratory results taken from PubChem BioAssay (NCI).
Several values for one entry are separate records, joined by “and”; a condition that tells them apart may be missing. Equal entries are not always repeated.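 Results reflect a 48-hour exposure of cells in 96-well plates to compound at five concentrations. TGI is the concentration that stops growth completely.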

Key:
Assay in all cases: growth of human tumour cells (NCI), 48 h
[1] = system: NCI-H23 lung
[2] = system: SK-MEL-28 melanoma
[3] = system: UACC-257 melanoma
[4] = system: SNB-19 CNS
[5] = system: SF-268 CNS
[6] = system: MOLT-4 leukemia
[7] = system: RPMI-8226 leukemia
[8] = system: DU-145 prostate
[9] = system: MDA-MB-231 breast
[10] = system: HT29 colon
[11] = system: HOP-62 NSCLC
[12] = system: MDA-N
[13] = system: OVCAR-8 ovarian
[14] = system: 786-0 renal
[15] = system: U251 CNS
[16] = system: OVCAR-3 ovarian
[17] = system: NCI-H460 lung
[18] = system: MALME-3M melanoma
[19] = system: BT-549 breast
[20] = system: HOP-92 NSCLC
[21] = system: SK-MEL-5 melanoma
[22] = system: KM12 colon
[23] = system: HCC-2998 colon
[24] = system: K-562 leukemia
[25] = system: ACHN renal
[26] = system: HCT-15 colon
[27] = system: MCF7 breast
[28] = system: TK-10 renal
[29] = system: UO-31 renal
[30] = system: NCI-H522 lung
[31] = system: UACC-62 melanoma
[32] = system: SN12C renal
[33] = system: A549 NSCLC
[34] = system: SF-539 CNS
[35] = system: SK-MEL-2 melanoma
[36] = system: NCI/ADR-RES ovarian
[37] = system: HCT-116 colon
[38] = system: NCI-H226 lung
[39] = system: SNB-75 CNS
[40] = system: OVCAR-5 ovarian
[41] = system: PC-3 prostate
[42] = system: SR leukemia
[43] = system: SF-295 CNS
[44] = system: RXF 393 renal
[45] = system: MDA-MB-435
[46] = system: SW-620 colon
[47] = system: IGROV1 ovarian
[48] = system: CAKI-1 renal
[49] = system: A498 renal
[50] = system: T-47D breast
[51] = system: LOX IMVI melanoma
[52] = system: HL-60(TB) leukemia
[53] = system: HS 578T breast
[54] = system: OVCAR-4 ovarian
[55] = system: SK-OV-3 ovarian
[56] = system: EKVX NSCLC
[57] = system: COLO 205 colon
[58] = system: CCRF-CEM leukemia
[59] = system: M14 melanoma

## O=C1c2ccccc2C(=O)N1n1c(Cc2ccc([N+](=O)[O-])cc2)n[nH]c1=O
[1]
  TGI: > 100 µM
[2]
  TGI: > 100 µM
[3]
  TGI: > 100 µM
[4]
  TGI: > 100 µM
[5]
  TGI: > 100 µM
[6]
  TGI: > 100 µM
[7]
  TGI: > 100 µM
[8]
  TGI: > 100 µM
[9]
  TGI: > 100 µM
[10]
  TGI: > 100 µM
[11]
  TGI: > 100 µM
[12]
  TGI: > 100 µM
[13]
  TGI: > 100 µM
[14]
  TGI: > 100 µM
[15]
  TGI: > 100 µM
[16]
  TGI: > 100 µM
[17]
  TGI: > 100 µM
[18]
  TGI: > 100 µM
[19]
  TGI: > 100 µM
[20]
  TGI: > 100 µM
[21]
  TGI: > 100 µM
[22]
  TGI: > 100 µM
[23]
  TGI: > 100 µM
[24]
  TGI: > 100 µM
[25]
  TGI: > 100 µM
[26]
  TGI: > 100 µM
[27]
  TGI: > 100 µM
[28]
  TGI: > 100 µM
[29]
  TGI: > 100 µM
[30]
  TGI: > 100 µM
[31]
  TGI: 89.1 µM
[32]
  TGI: > 100 µM
[33]
  TGI: > 100 µM
[34]
  TGI: > 100 µM
[35]
  TGI: > 100 µM
[36]
  TGI: > 100 µM
[37]
  TGI: > 100 µM
[38]
  TGI: > 100 µM
[39]
  TGI: > 100 µM
[40]
  TGI: > 100 µM
[41]
  TGI: > 100 µM
[42]
  TGI: > 100 µM
[43]
  TGI: > 100 µM
[44]
  TGI: > 100 µM
[45]
  TGI: > 100 µM
[46]
  TGI: > 100 µM
[47]
  TGI: > 100 µM
[48]
  TGI: > 100 µM
[49]
  TGI: > 100 µM
[50]
  TGI: > 100 µM

## C=CCc1cc(-c2nc(=S)[nH][nH]2)ccc1N=NNc1ccc(C(=O)O)cc1
[1]
  TGI: > 100 µM
[51]
  TGI: > 100 µM
[2]
  TGI: > 100 µM
[3]
  TGI: > 100 µM
[4]
  TGI: > 100 µM
[52]
  TGI: > 100 µM
[5]
  TGI: > 100 µM
[53]
  TGI: > 100 µM
[6]
  TGI: > 100 µM
[7]
  TGI: > 100 µM
[8]
  TGI: > 100 µM
[9]
  TGI: > 100 µM
[10]
  TGI: > 100 µM
[11]
  TGI: > 100 µM
[12]
  TGI: > 100 µM
[13]
  TGI: > 100 µM
[14]
  TGI: > 100 µM
[54]
  TGI: > 100 µM
[15]
  TGI: > 100 µM
[55]
  TGI: > 100 µM
[16]
  TGI: > 100 µM
[18]
  TGI: > 100 µM
[56]
  TGI: > 100 µM
[19]
  TGI: 73.8 µM
[20]
  TGI: > 100 µM
[21]
  TGI: 60.1 µM
[22]
  TGI: > 100 µM
[57]
  TGI: 58 µM
[24]
  TGI: > 100 µM
[25]
  TGI: > 100 µM
[26]
  TGI: > 100 µM
[27]
  TGI: > 100 µM
[28]
  TGI: > 100 µM
[29]
  TGI: > 100 µM
[30]
  TGI: > 100 µM
[32]
  TGI: > 100 µM
[58]
  TGI: > 100 µM
[33]
  TGI: > 100 µM
[35]
  TGI: > 100 µM
[36]
  TGI: > 100 µM
[37]
  TGI: > 100 µM
[38]
  TGI: > 100 µM
[39]
  TGI: > 100 µM
[40]
  TGI: > 100 µM
[41]
  TGI: > 100 µM
[42]
  TGI: > 100 µM
[43]
  TGI: > 100 µM
[44]
  TGI: > 100 µM
[45]
  TGI: > 100 µM
[46]
  TGI: > 100 µM
[47]
  TGI: > 100 µM
[48]
  TGI: > 100 µM
[49]
  TGI: > 100 µM
[50]
  TGI: 70.2 µM
[59]
  TGI: > 100 µM

## CNc1cc2c(c3ccccc13)C(CCl)CN2C(=O)c1cc2cc(OC)c(OC)c(OC)c2[nH]1 (configuration not stated)
[1]
  TGI: 0.00191 µM
[51]
  TGI: 0.00811 µM
[2]
  TGI: 0.0351 µM
[4]
  TGI: 0.107 µM
[52]
  TGI: 0.000667 µM
[53]
  TGI: 0.0379 µM
[6]
  TGI: 0.023 µM
[7]
  TGI: 0.0649 µM
[10]
  TGI: 0.168 µM
[11]
  TGI: 0.0319 µM
[12]
  TGI: 0.00856 µM
[13]
  TGI: 0.0124 µM
[14]
  TGI: 0.00346 µM
[15]
  TGI: 0.133 µM
[55]
  TGI: 0.894 µM and 0.982 µM
[16]
  TGI: 1.32 µM
[17]
  TGI: 0.00226 µM
[56]
  TGI: 0.0155 µM
[19]
  TGI: 0.0333 µM
[20]
  TGI: 0.0466 µM
[21]
  TGI: 0.00435 µM
[22]
  TGI: 0.103 µM
[57]
  TGI: 0.0114 µM
[25]
  TGI: 0.00154 µM
[27]
  TGI: 0.131 µM
[31]
  TGI: 0.00209 µM
[32]
  TGI: 0.00628 µM and 0.0118 µM
[58]
  TGI: 0.142 µM
[33]
  TGI: > 100 µM
[35]
  TGI: 0.0197 µM
[36]
  TGI: 0.0156 µM
[38]
  TGI: 0.067 µM
[39]
  TGI: 0.00802 µM
[41]
  TGI: 0.0223 µM and 0.116 µM
[42]
  TGI: 0.00402 µM
[45]
  TGI: 0.0131 µM
[46]
  TGI: 0.00733 µM
[47]
  TGI: 0.128 µM
[48]
  TGI: 0.00431 µM and 0.022 µM
[49]
  TGI: 0.00762 µM
[50]
  TGI: 0.0756 µM and 0.405 µM

## CC(NC(=O)Cc1ccccc1)NC(=O)C(C)C(=O)Nc1ccccc1 (configuration not stated)
[1]
  TGI: > 100 µM
[3]
  TGI: > 100 µM
[4]
  TGI: 75.8 µM
[5]
  TGI: > 100 µM
[53]
  TGI: 88 µM
[6]
  TGI: > 100 µM
[7]
  TGI: > 100 µM
[8]
  TGI: > 100 µM
[9]
  TGI: > 100 µM
[10]
  TGI: > 100 µM
[12]
  TGI: > 100 µM
[13]
  TGI: > 100 µM
[14]
  TGI: > 100 µM
[54]
  TGI: > 100 µM
[15]
  TGI: > 100 µM
[55]
  TGI: > 100 µM
[17]
  TGI: > 100 µM
[18]
  TGI: > 100 µM
[56]
  TGI: > 100 µM
[19]
  TGI: > 100 µM
[20]
  TGI: > 100 µM
[21]
  TGI: > 100 µM
[22]
  TGI: > 100 µM
[57]
  TGI: > 100 µM
[24]
  TGI: > 100 µM
[25]
  TGI: > 100 µM
[26]
  TGI: > 100 µM
[27]
  TGI: > 100 µM
[28]
  TGI: > 100 µM
[29]
  TGI: > 100 µM
[30]
  TGI: > 100 µM
[31]
  TGI: > 100 µM
[32]
  TGI: > 100 µM
[33]
  TGI: > 100 µM
[34]
  TGI: > 100 µM
[35]
  TGI: > 100 µM
[36]
  TGI: > 100 µM
[37]
  TGI: > 100 µM
[38]
  TGI: 74.3 µM
[39]
  TGI: > 100 µM
[40]
  TGI: > 100 µM
[41]
  TGI: > 100 µM
[42]
  TGI: > 100 µM
[43]
  TGI: > 100 µM
[44]
  TGI: > 100 µM
[45]
  TGI: > 100 µM
[46]
  TGI: > 100 µM
[47]
  TGI: > 100 µM
[48]
  TGI: > 100 µM
[50]
  TGI: > 100 µM
[59]
  TGI: > 100 µM
